The text below walks through data of patent publication US12699083B2, “Device for continuous measurement of cardiac activity” (The Hospital for Sick Children, priority 2018, dated 2026).

For one test, the system named is hiPSC-CM monolayers. Put plainly: Drug test on hiPSC-CM monolayers cultured on CNT-PDMS device arrays (contractile stress, beating rate, beating rhythm from CNT sensor resistance). It counts as cell-based, human.
The subject of another test is single hiPSC-CM. The conditions noted are these: 0.1 μM of OM, TFFB; cited from earlier work.

Description for hiPSC-CM monolayers: Once after hiPSC-CMs were seeded, the device array 10 was placed in a humidified 37° C. incubator with 5% CO2, and the electrical signal of the CNT sensors started to be recorded. A constant voltage of 2.5 V was applied to the CNT-PDMS sensors, and sensor signals were recorded with a sampling frequency of 10 Hz.
Drug stocks were kept at 4° C. prior to use. Drug tests were performed on hiPSC-CM monolayers during culture days between 10 and 14. […] After each drug addition, cells were incubated for 10 hours for each dose before CNT sensor signals were recorded to reflect the drug effect.
Each set of data was from 3 to 6 experiment repeats and presented as values of the mean and the standard error of the mean. For differential analysis, all statistics of recorded data was processed using Student's t-test with levels of 0.05, 0.1 when they were compared to the control group. All data sets passed Shapiro-Wilk normality tests and equal variance tests.
The contractile stress generated by cardiomyocytes monolayer during synchronous systole was calculated from the experimentally measured data (i.e., CNT sensor's electrical resistance change).

As to `COc1cc2c(cc1OC)CC(=O)N(CCCN(C)C[C@H]1Cc3cc(OC)c(OC)cc31)CC2` [Ivabradine], in the test on hiPSC-CM monolayers (10.00 μM Ivabradine, n=3, p<0.05, before 1.16±0.32 Hz), the beating rate is recorded as 0.81±0.30 Hz. Also, in the test with hiPSC-CM monolayers (10.00 μM Ivabradine, n=3, p>0.1, before 2.26±0.43 kPa), the contractile stress came out at 2.00±0.68 kPa.

Consider `Cc1cccc(CCN2CCC(C(=O)c3ccc(NS(C)(=O)=O)cc3)CC2)n1` [E-4031], for which the contractile stress in the test on hiPSC-CM monolayers (0.10 μM E-4031, n=3) is 2.47±0.48 kPa; with hiPSC-CM monolayers (0.60 μM E-4031, n=3, p>0.1) it was 2.39±1.38 kPa.

For `CC(C)NCC(O)c1ccc(O)c(O)c1` (centres unmarked) [Isoproterenol], the “beating rate increased by” value with hiPSC-CM monolayers (2.00 μM isoproterenol) is reported as 13.6%. Further, in the test on hiPSC-CM monolayers (2.00 μM isoproterenol vs control), the “Contractile stress increased by” value came out at 69.4%. The molecule further had a beating rate with hiPSC-CM monolayers (2.00 μM isoproterenol, n=3, p<0.05, control 1.17±0.068 Hz) of 1.33±0.081 Hz. In the test with hiPSC-CM monolayers (2.00 μM isoproterenol, n=3, control 2.34±0.093 kPa), this molecule gave a contractile stress of 3.963±0.532 kPa.

In the case of `COC(=O)N1CCN(Cc2cccc(NC(=O)Nc3ccc(C)nc3)c2F)CC1` [OM, Omecamtiv mecarbil], the “Contractility generated by a single cardiomyocyte increased by” value with single hiPSC-CM is 16.7%. Moreover, the “contractile stress increase by” value in the test with hiPSC-CM monolayers (20 nM (0.02 μM) OM) is recorded as 76%. In the test on hiPSC-CM monolayers (20 nM (0.02 μM) OM, n=3, p<0.05, before 2.25±0.11 kPa), this molecule had a contractile stress of 3.96±0.40 kPa. In the test on hiPSC-CM monolayers (20 nM OM, n=3, p<0.05, before 1.69×10^−2±8.46×10^−4), the “amplitude of ΔR/R0” value is on record as 2.98×10^−2±2.97×10^−3. In addition, the beating rate in the test on hiPSC-CM monolayers (20 nM OM, n=3, p>0.1, control 1.11±0.25 Hz) is 1.13±0.31 Hz.

Regarding `COc1ccc(CCN(C)CCCC(C#N)(c2ccc(OC)c(OC)c2)C(C)C)cc1OC` (centres unmarked) [Verapamil], in the test on hiPSC-CM monolayers (0.20 μM Verapamil, n=3, before 2.34±9.31×10^−2 kPa), the contractile stress was 1.15±1.31×10^−1 kPa.
